Measurements from patent US5585492A, “LTA4 Hydrolase inhibitors” (priority 1994, dated 1996).
Like-named read-outs stand apart in the source and are kept apart here.

Experiments:
[1] = tested on: LTA4 hydrolase; conditions: cited from earlier work
[2] = target: T1, recombinant human LTA4 hydrolase (Homo sapiens, UniProt P09960); assay: Recombinant Human LTA4 Hydrolase Assay for LTA4 Hydrolase Inhibitor Activity (LTB4 by enzyme-linked immunoassay); assay type: biochemical; conditions: read-out: Recombinant Human LTA4 Hydrolase Assay IC50 LTA4H
T1 construct: made in house; host or cells: Spodoptera frugiperda Sf-9 cells, baculovirus (AcNPV) expression vector
T1 sequence (P09960 1-611): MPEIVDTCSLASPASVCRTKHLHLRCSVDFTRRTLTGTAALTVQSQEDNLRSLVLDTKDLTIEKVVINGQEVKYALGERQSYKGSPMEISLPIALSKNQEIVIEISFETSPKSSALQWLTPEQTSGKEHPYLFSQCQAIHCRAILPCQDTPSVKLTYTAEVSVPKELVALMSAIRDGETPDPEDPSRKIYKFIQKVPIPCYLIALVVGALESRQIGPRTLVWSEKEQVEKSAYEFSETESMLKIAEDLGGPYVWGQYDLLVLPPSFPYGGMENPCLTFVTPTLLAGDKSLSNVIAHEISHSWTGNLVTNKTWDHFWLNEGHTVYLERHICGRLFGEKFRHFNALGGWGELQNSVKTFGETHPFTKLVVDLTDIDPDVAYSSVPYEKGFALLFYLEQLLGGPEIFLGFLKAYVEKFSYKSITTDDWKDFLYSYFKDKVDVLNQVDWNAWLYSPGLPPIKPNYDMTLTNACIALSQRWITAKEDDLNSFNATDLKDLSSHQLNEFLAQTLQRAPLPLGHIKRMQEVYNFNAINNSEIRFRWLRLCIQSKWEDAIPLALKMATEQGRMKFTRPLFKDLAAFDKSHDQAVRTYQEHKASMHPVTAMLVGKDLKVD
Method: Compounds of the present invention were tested for LTA4 hydrolase inhibitor activity against recombinant human LTA4 hydrolase (rhLTA4 H). […] Briefly, LTA4 hydrolase encoding DNA was amplified by polymerase chain reaction using a pair of oligonucleotide primers based on the nucleotide sequence from the 5'-end, and the complement of the 3'-end, of the coding region of the LTA4 hydrolase gene, the nucleotide sequence of which gene is known. […] A λgtll human placental cDNA library (Clonetech, Palo Alto, Calif.) provided the nucleic acid template.
One or more predetermined amounts of a compound of the invention were incubated in assay buffer (0.1M potassium phosphate, 5 mg/ml fatty acid free BSA, 10% DMSO, pH 7.4) for 10 minutes at room temperature with 250 ng of recombinant hLT4 H to allow binding, if any, between the enzyme and inhibitor. The stock enzyme solution was 1 mg/ml LTA4 hydrolase, 50 mM Tris, pH 8.0, 150 mM NaCl, 2.5 mM beta-mercaptoethanol, 50% glycerol. […] LTA4 (i.e., substrate) was prepared from the methyl ester of LTA4 (Biomol, Inc., Plymouth Meeting, Pa.) by treating the methyl ester with 30 molar equivalents of LiOH at room temperature for 18 hours. The LTA4 substrate in its free acid form was kept frozen at -80° C. until needed. […] Each reaction was carried out at room temperature for 10 minutes. The reaction was stopped by diluting 25 μl of the reaction mixture with 500 μl of the assay buffer without DMSO. LTB4 was quantified in the diluted sample by a commercially available enzyme-linked immunoassay [Caymen Chemical Co., Ann Arbor, Mich.] using the method recommended in the manufacturer's instructions and compared to the amount of LTB4 produced in a negative control (i.e., essentially identical conditions except without addition of an inhibitor compound). The IC50 was routinely calculated from the data produced.

[3] = tested on: LTB4 production in human blood; assay: Inhibition of Calcium Ionophore-Induced LTB4 Production in Human Blood (HWB); assay type: cell-based; conditions: Homo sapiens, read-out: Inhibition of Calcium Ionophore-Induced LTB4 Production in Human Blood IC50 HWB
[4] = tested on: LTB4 production in mouse blood; assay: Murine Ex Vivo LTB4 Inhibition, calcium ionophore stimulated mouse blood after oral gavage; assay type: in vivo; conditions: oral gavage, 1 hour
Method: Leukotriene A4 hydrolass inhibitor compounds of the present invention were diluted to a predetermined concentration in phosphate buffered saline containing 2% DMSO and 1% Tween 80. The compounds were administered by oral gavage to adult male outbred mice weighing approximately 20-30 gm at a dose of 10 mg/kg body weight. (Compounds given at a dose of 50 mg/kg body weight are designtated in following Table by the symbol, *.) Sixty (60) minutes after administration of an LTA4 inhibitor compound of the invention, blood was collected (into heparin-containing tubes) from the retroorbital sinus. […] The mixture was incubated for 10 minutes at 37° C. in a humidified incubator. The reaction was terminated by centrifugation (833 g, 10 minutes at 4° C.). Supernatants were analyzed for LTB4 and thromboxane by commercially available enzyme-linked immunoassays [Caymen Chemical Co., Ann Arbor, Mich.] in accordance with the manufacturer's instructions. The percent inhibition was determined by comparison to animals treated identically except that the solution admininstered by oral gavage was devoid of inhibitor compound.

[5] = human whole blood, A23187 20 mcg/ml

| SMILES | LTA4 hydrolase inhibitory activity (in words) [1] | IC50 [2] | IC50 [3, 5] | Murine Ex Vivo LTB4 Inhibition % I LTB4 at 1 hour after administration of 10 mg/kg [4] | IC50 [3] | Murine Ex Vivo LTB4 Inhibition % I LTB4 at 1 hour after administration of 50 mg/kg (*) ([4]; 50 mg/kg (*)) |
| --- | --- | --- | --- | --- | --- | --- |
| C[C@H](CS)C(=O)N1CCC[C@H]1C(=O)O [captopril] | exhibit LTA4 hydrolase inhibitory activity |  |  |  |  |  |
| Fc1cc(OCCN2CCCC2)ccc1Cc1ccccc1 [Example 116] |  | 53 nM | 1090 nM | 18% |  |  |
| CCOC(=O)CNCCCCCOc1ccc(Cc2ccccc2)cc1 [Example 321] |  | 250 nM | 421 nM | 87% |  |  |
| CCOC(=O)CCNCCCCOc1ccc(Cc2ccccc2)cc1 [Example 272] |  | 7 nM | 76 nM | 97% |  |  |
| c1ccc(Cc2ccc(OCCn3cccc4ncnc3-4)cc2)cc1 [Example 338A] |  | 140 nM |  | 22% | 690 nM |  |
| CCOC(=O)CNCCCCOc1ccc(Cc2ccccc2)cc1 [Example 320] |  | 14 nM | 354 nM | 85% |  |  |
| CC(=O)N1CCN(CCOc2ccc(Cc3ccccc3)cc2)CC1 [Example 277] |  | 520 nM | 546 nM | 42% |  |  |
| COC(=O)C1CC2CCC(C1)N2CCOc1ccc(Cc2ccccc2)cc1 (centres unmarked) [Example 278] |  | 22 nM |  | 95% | 247 nM |  |
| CNC(=O)C1CCN(CCOc2ccc(Cc3ccccc3)cc2)CC1 [Example 420] |  | 57 nM | 133 nM | 93% |  |  |
| CC(C)C[C@H](NC(=O)[C@@H](O)[C@H](N)Cc1ccccc1)C(=O)O [bestatin] | exhibit LTA4 hydrolase inhibitory activity |  |  |  |  |  |
| c1ccc(Cc2ccc(OCCn3cnc4ncccc43)cc2)cc1 [Example 338B] |  | 8 nM | 330 nM |  |  | 92% |
